In the NIST ThermoML archive (doi:10.1021/je900387e):

Assay: xn = mol fraction of the nth substance listed
Settings: 332.4 K, Liquid, Pycnometric method

Cn1ccnc1 [1-methylimidazole] + O=C=O
Settings | mass density [kg/m3]
13350 kPa, x1 = 0.0102 | 600
13550 kPa, x1 = 0.0247 | 668
13560 kPa, x1 = 0.0102 | 612
13730 kPa, x1 = 0.0247 | 675
13790 kPa, x1 = 0.0102 | 623
13890 kPa, x1 = 0.0247 | 681
13960 kPa, x1 = 0.0247 | 684
14040 kPa, x1 = 0.0102 | 636
14140 kPa, x1 = 0.0247 | 690
14320 kPa, x1 = 0.0102 | 649
14330 kPa, x1 = 0.0247 | 696
14520 kPa, x1 = 0.0247 | 703
14640 kPa, x1 = 0.0102 | 663
14740 kPa, x1 = 0.0247 | 709
14970 kPa, x1 = 0.0247 | 716
15030 kPa, x1 = 0.0102 | 677
15220 kPa, x1 = 0.0247 | 723
15450 kPa, x1 = 0.0487 | 779
15480 kPa, x1 = 0.0102 | 692
15480 kPa, x1 = 0.0247 | 730
15710 kPa, x1 = 0.0487 | 784
15750 kPa, x1 = 0.0247 | 737
15920 kPa, x1 = 0.0487 | 789
15960 kPa, x1 = 0.0247 | 742
15970 kPa, x1 = 0.0102 | 707
16130 kPa, x1 = 0.0487 | 794
16190 kPa, x1 = 0.0247 | 747
16260 kPa, x1 = 0.0487 | 797
16390 kPa, x1 = 0.0487 | 799
16430 kPa, x1 = 0.0247 | 752
16520 kPa, x1 = 0.0487 | 801
16570 kPa, x1 = 0.0102 | 723
16650 kPa, x1 = 0.0487 | 804
16720 kPa, x1 = 0.0247 | 758
16830 kPa, x1 = 0.0487 | 806
16910 kPa, x1 = 0.0247 | 762
16970 kPa, x1 = 0.0487 | 809
17090 kPa, x1 = 0.0247 | 766
17130 kPa, x1 = 0.0487 | 811
17260 kPa, x1 = 0.0102 | 740
17260 kPa, x1 = 0.0487 | 814
17300 kPa, x1 = 0.0247 | 770
17440 kPa, x1 = 0.0487 | 817
17510 kPa, x1 = 0.0247 | 774
17520 kPa, x1 = 0.1024 | 890
17590 kPa, x1 = 0.0487 | 819
17680 kPa, x1 = 0.1024 | 892
17730 kPa, x1 = 0.1024 | 892
17750 kPa, x1 = 0.0487 | 821
17800 kPa, x1 = 0.0247 | 779
17800 kPa, x1 = 0.1024 | 893
17890 kPa, x1 = 0.1024 | 894
17920 kPa, x1 = 0.0487 | 824
17960 kPa, x1 = 0.1024 | 895
18040 kPa, x1 = 0.1024 | 896
18060 kPa, x1 = 0.0102 | 757
18090 kPa, x1 = 0.1024 | 896
18120 kPa, x1 = 0.0487 | 827
18150 kPa, x1 = 0.1024 | 897
18200 kPa, x1 = 0.1024 | 897
18250 kPa, x1 = 0.1024 | 898
18280 kPa, x1 = 0.0487 | 829
18310 kPa, x1 = 0.1024 | 899
18400 kPa, x1 = 0.1024 | 900
18470 kPa, x1 = 0.1024 | 900
18480 kPa, x1 = 0.0487 | 832
18530 kPa, x1 = 0.1024 | 901
18580 kPa, x1 = 0.1024 | 901
18620 kPa, x1 = 0.0102 | 769
18620 kPa, x1 = 0.1024 | 902
18670 kPa, x1 = 0.0487 | 835
